Measurements taken from patent US20060058296A1, “Treatment of osteolytic lesions associated with multiple myeloma by inhibition of p38 map kinase” (Scios, Inc., priority 2003, published 2006).
Where a name gives a salt, the structure may show the parent alone.

Legend:
[1] = system: VEGF; experiment: VEGF secretion from MM contact-activated BMSC; type: cell-based, human
From the text: p38 MAPK controls secretion of these factors in-vitro in systems representing the BM milieu.
In addition to promoting vascularization, VEGF is a growth-supporting factor for MM cells. Neovascularization of MM tumors in the marrow allows growth beyond diffusion limitations for gas and nutrient exchange. VEGF is secreted from MM contact-activated BMSC, and this secretion is inhibited by p38 MAPK inhibitor Compound 4 (FIG. 10).

[2] = system: osteolytic lesions associated with multiple myeloma; experiment: Treatment of a patient with osteolytic lesions associated with multiple myeloma; type: in vivo, human; conditions: therapeutic amount
From the text: A patient is diagnosed with multiple myeloma and presents with a number of holes or osteolytic lesions. The osteolytic lesions are caused by the rapid growth of myeloma cells, which displace osteoblasts, and disrupting the balance of bone creation and destruction. […] Osteoblast activity is increased relative to osteoclast activity. Pain from bone destruction, fracture and the like is reduced. The osteolytic lesions are caused by the rapid growth of myeloma cells, which displace osteoblasts, and disrupting the balance of bone creation and destruction. […] Osteoblast activity is increased relative to osteoclast activity. Pain from bone destruction, fracture and the like is reduced.

[3] = system: RPMI; experiment: MM cell proliferation, RPMI; type: cell-based; conditions: 72-hour exposure
[4] = system: human myeloma (RPM18266) tumor; experiment: Human myeloma xenograft plasmacytoma model in beige-nude-xid mouse; type: in vivo
Protocol: The p38 MAPK signaling pathway plays an important role in different pathological conditions and specific inhibitors of p38 alpha and beta MAPK block production of the major inflammatory cytokines. Human multiple myeloma (MM) is an incurable neoplasm of terminally differentiated B cells and MM disease progression is affected by immunoregulatory elements such as IL-6 and other cytokines. […] Treatment (90 mg/kg/bid by oral gavage) is initiated in mice with palpable tumor size (˜200 mm^3) as judged by tumor volume.

[5] = system: primary murine marrow derived osteoclast precursors; experiment: Osteoclast differentiation, primary murine marrow derived osteoclast precursors; type: cell-based; conditions: di-hydroxy vitamin D induced differentiation; for mature osteoclast formation: 100 nM; for mature osteoclast formation prevented: increasing doses
Protocol: Inhibition of p38α MAPK prevented osteoclast differentiation in two types of standard in vitro models. In the first, primary murine marrow derived osteoclast precursors are cultured in the presence of di-hydroxy vitamin D to induce differentiation. […] In the second model, primary human marrow-derived osteoclast precursors are cultured in the presence of dihydroxy vitamin D [(OH)2D3] to induce differentiation. In both cases, 100 nM of the exemplary p38 MAPK inhibitors prevents osteoclast formation as measured by tartrate resistant acid phosphatase (TRAP) staining or by staining with 23c6 (a mature osteoclast cell surface marker)(FIG. 14).

[6] = system: IM9; experiment: MM cell proliferation, IM9; type: cell-based; conditions: IM9, 72-hour exposure
[7] = target: T1, COX-2 enzyme (Homo sapiens, UniProt P35354); experiment: Activity of purified COX-2 enzyme; type: biochemical
T1 sequence (P35354 18-604): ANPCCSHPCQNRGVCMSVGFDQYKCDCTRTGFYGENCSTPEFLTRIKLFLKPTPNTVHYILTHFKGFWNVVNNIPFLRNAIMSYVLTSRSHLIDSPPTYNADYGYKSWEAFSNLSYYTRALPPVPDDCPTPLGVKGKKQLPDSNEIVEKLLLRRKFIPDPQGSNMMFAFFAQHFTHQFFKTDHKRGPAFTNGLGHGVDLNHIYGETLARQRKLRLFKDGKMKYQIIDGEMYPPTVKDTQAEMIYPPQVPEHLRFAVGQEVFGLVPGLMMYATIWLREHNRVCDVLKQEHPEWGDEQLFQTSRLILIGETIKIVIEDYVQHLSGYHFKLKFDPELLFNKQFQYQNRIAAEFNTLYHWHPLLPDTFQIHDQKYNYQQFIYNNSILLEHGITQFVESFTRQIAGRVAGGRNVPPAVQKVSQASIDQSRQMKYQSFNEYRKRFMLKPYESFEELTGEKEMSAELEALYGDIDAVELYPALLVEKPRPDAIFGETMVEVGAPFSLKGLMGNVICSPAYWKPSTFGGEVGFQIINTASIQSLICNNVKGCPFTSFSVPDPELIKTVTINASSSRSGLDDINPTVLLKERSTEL

[8] = system: TNF-α; experiment: LPS-induced TNF-α secretion in whole blood; type: cell-based, human
Protocol: Other in vitro assays can assess the production of TNF-a as a correlation to p38 MAP kinase activity. One such example is a Human Whole Blood Assay. In this assay, venous blood is collected from, e.g., healthy male volunteers into a heparinized syringe and is used within 2 hours of collection. Test compounds are dissolved in 100% DMSO and 1 μl aliquots of drug concentrations ranging from 0 to 1 mM are dispensed into quadruplicate wells of a 24-well microtiter plate (Nunclon Delta SI, Applied Scientific Co., San Francisco, Calif.). Whole blood is added at a volume of 1 ml/well and the mixture is incubated for 15 minutes with constant shaking (Titer Plate Shaker, Lab-Line Instruments, Inc., Melrose Park, Ill.) at a humidified atmosphere of 5% CO2 at 37° C. Whole blood is cultured either undiluted or at a final dilution of 1:10 with RPMI 1640 (Gibco 31800+NaHCO3, Life Technologies, Rockville, Md. and Scios, Inc., Sunnyvale, Calif.). At the end of the incubation period, 10 μl of LPS (E. coli 0111:B4, Sigma Chemical Co., St. Louis, Mo.) is added to each well to a final concentration of 1 or 0.1 μg/ml for undiluted or 1:10 diluted whole blood, respectively. The incubation is continued for an additional 2 hours. The reaction is stopped by placing the microtiter plates in an ice bath, and plasma or cell-free supernates are collected by centrifugation at 3000 rpm for 10 minutes at 4° C. […]

[9] = system: IL-1β; experiment: LPS-induced IL-1β release in human whole blood; type: cell-based; conditions: human whole blood (undiluted)
From the text: IL-1β illustrates the importance of amplification loops in myeloma-induced cytokine stimulation. IL-1β plays a well-documented role in the induction of multiple cytokines in a “cytokine network” of feedback loops, including strong induction of IL-6. The ability of IL-1 to increase mRNA expression and induce secretion of the MM-relevant cytokines from MM/BMSC cultures is evidence of this role.

[10] = system: PGE2; experiment: PGE2 levels in LPS-induced human whole blood; type: cell-based
[11] = system: RANKL mRNA; experiment: RANKL mRNA in BMSC and MM/BMSC cultures; type: cell-based, human; conditions: 100 nM
Protocol: In addition, 100 nM of these p38 MAPK inhibitors blocks the weaker induction of RANKL by IL-6 in BMSC.

[12] = system: arthritic lesions in the hind paws; experiment: Chick type II collagen arthritis in rats with established disease; type: in vivo, rat
Protocol: Rats treated intradermally with chick type II collagen develop arthritic lesions in the hind paws similar to human arthritic joints with respect to accumulation of pannus tissue, presence of inflammatory cells, and increased expression of inflammatory cytokines. […] Animals were scored daily by an observer blinded with respect to treatment regimen. At the completion of the study on Day 28, radiographic images were analyzed in a blinded manner, based upon the extent of soft tissue swelling, joint space narrowing, and bone destruction. Animal weights at the beginning and end of the study were also recorded, as weight loss is associated with disease progression in this model.

[13] = system: MIP-1α; experiment: MIP-1α production in MM/BMSC co-cultures; type: cell-based, human
From the text: MIP-1α elevation in MM patient serum correlates with disease severity. Unlike many MM-relevant cytokines present in the marrow microenvironment, which are produced mainly by the activated BMSC, MM cells are the primary source of MIP-1α. IL-1 further induces MIP-1α production.

[14] = system: BMSC; experiment: BMSC viability, MTS assay of respiratory activity; type: cell-based, human; conditions: tested up to 50-fold excess of active concentration
Protocol: Neither p38 MAPK inhibition nor high concentrations of p38 MAPK inhibitor (tested up to 50-fold excess of active concentration) affected BMSC viability (FIG. 4). Viability was measured using a standard enzymatic assay of respiratory activity, MTS (3-(4,5-dimethylthiazol-2-yl)-5-(3-carboxymethoxyphenyl)-2-(4-sulfophenyl)-2H-tetrazolium). Results obtained with the p38 MAPK inhibitor are in agreement with published results using a different p38α MAPK inhibitor.

[15] = system: U266B; experiment: MM cell proliferation, U266B; type: cell-based; conditions: 72-hour exposure
[16] = system: ARH-77; experiment: MM cell proliferation, ARH-77; type: cell-based; conditions: ARH-77, 72-hour exposure
[17] = target: T2, COX-1 (Homo sapiens, UniProt P23219); experiment: Activity of platelet-derived preparation of COX-1; type: biochemical
T2 construct: a platelet-derived preparation of COX-1; from tissue; host or cells: platelets
T2 sequence (P23219 24-599): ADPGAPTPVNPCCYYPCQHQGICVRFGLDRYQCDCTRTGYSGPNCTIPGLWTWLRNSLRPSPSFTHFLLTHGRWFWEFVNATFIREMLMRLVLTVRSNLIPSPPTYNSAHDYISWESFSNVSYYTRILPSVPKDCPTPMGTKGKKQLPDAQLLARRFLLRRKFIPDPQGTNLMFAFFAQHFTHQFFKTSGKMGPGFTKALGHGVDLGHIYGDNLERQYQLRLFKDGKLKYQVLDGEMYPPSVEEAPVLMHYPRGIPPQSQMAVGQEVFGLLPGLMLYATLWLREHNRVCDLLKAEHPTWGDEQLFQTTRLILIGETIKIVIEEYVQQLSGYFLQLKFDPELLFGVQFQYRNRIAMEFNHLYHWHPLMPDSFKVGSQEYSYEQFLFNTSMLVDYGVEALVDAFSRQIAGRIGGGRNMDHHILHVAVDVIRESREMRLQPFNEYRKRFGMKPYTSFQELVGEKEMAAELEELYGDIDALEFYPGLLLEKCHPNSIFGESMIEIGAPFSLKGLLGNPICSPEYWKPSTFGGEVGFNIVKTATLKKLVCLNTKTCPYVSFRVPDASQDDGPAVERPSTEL

[18] = system: IL-11; experiment: IL-1 and TGFβ induction of IL-11 in BMSC and MM/BMSC cultures; type: cell-based, human; conditions: 100 nM
From the text: p38 MAPK controls secretion of these factors in-vitro in systems representing the BM milieu. […] IL-11 elicits pro-fibrotic responses and promotes osteoclast-driven bone resorption.

[19] = system: COX-2 mRNA; experiment: LPS-induced COX-2 mRNA; type: cell-based, human

With `COC(=O)C(=O)c1cn(C(=O)c2ccc(Cl)cc2)c2cc(OC)c(C(=O)N3CCC(Cc4ccccc4)CC3)cc12` [Compound 4] the VEGF secretion [1] was “inhibited”.

With `C[C@@H]1CN(Cc2ccc(F)cc2)[C@@H](C)CN1C(=O)c1cc2c(C(=O)C(=O)N(C)C)cn(C)c2cc1Cl` [Compound 57 hydrochloride salt] the “pain from bone destruction, fracture and the like” value [2] was “reduced”.

In the case of `C[C@@H]1CN(Cc2ccc(F)cc2)[C@@H](C)CN1C(=O)c1cc2c(C(=O)C(=O)N(C)C)cn(C)c2cc1Cl` [Compound 57], the reduction in proliferation [3] is reported as “about 20%”, the “HSP27 expression in tumor cells” value ([4]; mouse, in vivo) is reported as “significantly reduce” and the “p38 expression in tumor cells” value ([4]; mouse, in vivo) is reported as “significantly reduce”. The tumor volume ([4]; palpable tumors (~200 mm^3), 90 mg/kg/bid oral gavage, 21 days) was “significantly reduced”, the tumor volume ([4]; treatment initiated at pronounced tumor size (~800 mm^3)) was “significant reduction” and the “number of neoformed microvessels, histological assessment” value ([4]; vs vehicle) was “significant reduction”. For the same compound, the “tumor volume, histological assessment at the end of dosing” value ([4]; vs vehicle) was “significant reduction”, the mature osteoclast formation [5] was “complete blockage” and the “mature osteoclast formation prevented” value [5] was “in a dose dependent manner”. For the same compound, the reduction in proliferation [6] was “about 20%”, the “activity of the purified COX-2 enzyme” value [7] was “did not directly inhibit” and the “LPS-induced TNF-α secretion” value [8] was “dose-dependent reduction”. The “LPS-induced IL-1β release” value [9] was “dose-dependent reduction”, the PGE2 levels [10] was “reduced” and the “basal expression of RANKL mRNA” value [11] was “blocked”. For the same compound, the “RANKL mRNA induction by TGFβ and IL-1” value ([11]; BMSC cultures) was “blocked”, the “induction of RANKL by IL-6” value ([11]; BMSC) was “blocks” and the “RANKL mRNA induction by TGFβ and IL-1” value ([11]; MM/BMSC cultures) was “blocked”. The clinical score ([12]; 10 mg/kg orally once a day) was “intermediate between the vehicle and 40 mg/kg groups”, the clinical score ([12]; 40 mg/kg orally once a day, from third day of treatment to Day 28, vs vehicle) was “statistically significant improvement” and the “IL-1-induced production of MIP-1α” value [13] was “substantially reduce”. For the same compound, the “untreated production of MIP-1α” value [13] was “substantially reduce”, the BMSC viability [14] was “Neither p38α MAPK inhibition nor high concentrations of Compound 57 (tested up to 50-fold excess of active concentration) affected BMSC viability” and the reduction in proliferation [15] was “about 20%”. The reduction in proliferation [16] was “about 20%”, the “activity of a platelet-derived preparation of COX-1” value [17] was “nor did it inhibit” and the “IL-1 and TGFβ induction of IL-11 at the mRNA and protein levels” value ([18]; BMSC cultures) was “blocked”. For the same compound, the “IL-1 and TGFβ induction of IL-11 at the mRNA and protein levels” value ([18]; MM/BMSC cultures) was “blocked” and the “LPS-induced COX-2 mRNA” value [19] was “inhibited”.

`CN(C)C(=O)C(=O)c1c[nH]c2cc(Cl)c(C(=O)N3CCC(Cc4ccc(F)cc4)CC3)cc12` [Compound 162] was tested, and the mature osteoclast formation [5] was “complete blockage” and the “mature osteoclast formation prevented” value [5] was “in a dose dependent manner”.
